Values of other authors, collected in patent US20030072802A1, “Sustained release topiramate” (R.T. Alamo Ventures, Inc., priority 2001, published 2003).

How the values were obtained:
[1] = formulations currently in use; after a 200 mg dose
[2] = test system: state-dependent sodium channel (cultured neurons)
[3] = test system: GABAA receptors
[4] = test system: kainate/AMPA subtype of excitatory amino acid (glutamate) receptor
[5] = test system: NMDA receptor subtype

half life of plasma concentration [1]: about 21 hours | time of peak topiramate plasma concentration [1]: about 2 hours | effect on the frequency at which GABA activates GABAA receptors [3]: increases the frequency | sensitivity of the GABA-potentiating effect to flumazenil (benzodiazepine antagonist) [3]: not blocked by flumazenil | effect on the activity of NMDA at the NMDA receptor subtype [5]: no apparent effect
Structure (SMILES): CC1(C)OC2COC3(COS(N)(=O)=O)OC(C)(C)OC3C2O1 [topiramate, 2,3:4,5-bis-Q-(1-methylethylidene)-p-D-fructopyranose sulfamate]
effect on action potentials elicited repetitively by sustained depolarization [2]: blocked by topiramate in a time-dependent manner | effect on GABA-induced flux of chloride ions into neurons [3]: enhances the ability of GABA to induce a flux of chloride ions into neurons | effect on the duration of the channel open time [3]: nor did topiramate increase the duration of the channel open time | effect on the ability of kainate to activate the kainate/AMPA receptor [4]: antagonizes the ability of kainate to activate
